Experimental findings from patent publication US20260013505A1, “Herbicidal Compositions Comprising Diclosulam” (BASF SE, priority 2024, published 2026) are described below.

Holding throughout (assay type): in vivo
One assay relates to Amaranthus viridis. The assay is described as follows: Example 2 post-emergence field trial, AMAVI. Conditions: 21 DAT, growth stage 16-18. The procedure:
(§1) In the examples below, using the method of S. R. Colby (1967) “Calculating synergistic and antagonistic responses of herbicide combinations”, Weeds 15, p. 22ff., the value E, which is expected if the activity of the individual active compounds is only additive, was calculated:
(§2) [formula] • where • X=percent activity using active herbicide A at an application rate a; • Y=percent activity using active herbicide B (e.g. diclosulam) at an application rate b; • E=expected activity (in %) by A+B at application rates a+b.
(§3) If the value found experimentally is higher than the value E calculated according to Colby, a synergistic effect is present.
(§4) On field test sites, natural weed infestation or seeded weeds were treated post-emergence of the weeds.
(§5) In the field trials, the weeds were treated as indicated below.
(§6) In the following experiments, the herbicidal activity for the individual herbicidal compositions (solo and mixture applications) was assessed at the indicated days after treatment (DAT). The assessments for the damage on undesired weeds caused by the composition was carried out using a scale from 0 to 100%, compared to the untreated control plants. Here, 0 means no damage and 100 means complete destruction of the plants. […]

In a further assay the test system is Ipomoea triloba. The assay is described as follows: Example 1 post-emergence field trial, IPOTR. To be noted: 14 DAT, growth stage 35. The method, then:
as §1, §2, §3, §4, §5, §6

For assay [1], the system named is Eleusine indica. The assay is described as follows: Example 2 post-emergence field trial, ELEIN. Conditions: B solo 30 g ai/ha, 21 DAT, growth stage 21-25. The procedure: as §1, §2, §3, §4, §5, §6
For another assay, the system named is Brachiaria plantaginea. Kind of assay: Example 1 post-emergence field trial, BRAPL. Conditions: B solo 30 g ai/ha, 14 DAT, growth stage 21-25. The method, then:
as §1, §2, §3, §4, §5, §6

The subject of another assay is Portulaca oleracea. Kind of assay: Example 2 post-emergence field trial, POROL. Conditions: B solo 30 g ai/ha, 21 DAT, growth stage 14-16. The method, then:
as §1, §2, §3, §4, §5, §6

The next assay concerns Digitaria horizontalis. The assay is described as follows: Example 1 post-emergence field trial, DIGHO. To be noted: B solo 30 g ai/ha, 14 DAT, growth stage 18-31. The method, then: as §1, §2, §3, §4, §5, §6
Assay [2] concerns Eleusine indica. The assay is described as follows: Example 1 post-emergence field trial, ELEIN. To be noted: B solo 30 g ai/ha, 14 DAT, growth stage 18-31. The procedure: as §1, §2, §3, §4, §5, §6
The next assay concerns Sorghum vulgare. The assay is described as follows: Example 2 post-emergence field trial, SORVU. To be noted: B solo 30 g ai/ha, 14 DAT, growth stage 14-15. The procedure: as §1, §2, §3, §4, §5, §6
The next assay has as its system Cenchrus echinatus. Kind of assay: Example 1 post-emergence field trial, CCHEC. To be noted: B solo 30 g ai/ha, 14 DAT, growth stage 18-31. The procedure:
as §1, §2, §3, §4, §5, §6

Another assay concerns Euphorbia heterophylla. The assay is described as follows: Example 1 post-emergence field trial, EPHHL. To be noted: B solo 30 g ai/ha, 14 DAT, growth stage 35. The procedure:
as §1, §2, §3, §4, §5, §6

The test system of the next assay is Amaranthus hybridus. The assay is described as follows: Example 1 post-emergence field trial, AMACH. Conditions: B solo 30 g ai/ha, 14 DAT, growth stage 35. The procedure: as §1, §2, §3, §4, §5, §6

Take `CCOC(=O)COc1ccccc1Oc1nc(-n2c(=O)cc(C(F)(F)F)n(C)c2=O)c(F)cc1Cl` [A-1, ethyl 2-[2-[[3-chloro-5-fluoro-6-[3-methyl-2,6-dioxo-4-(trifluoromethyl)pyrimidin-1-yl]-2-pyridyl]oxy]phenoxy]acetate]: the “% herbicidal activity” value in the assay with Amaranthus viridis (A-1 solo 25 g ai/ha) came out at 69%; with Ipomoea triloba (A-1 solo 25 g ai/ha), 61%.

In the case of `CCOc1nc(F)cc2nc(S(=O)(=O)Nc3c(Cl)cccc3Cl)nn12` [B, diclosulam], the “% herbicidal activity” value with Eleusine indica [1] is recorded as 0%; with Amaranthus viridis (B solo 30 g ai/ha), 65%; in the assay on Brachiaria plantaginea, 3%; with Portulaca oleracea, 58%; in the assay with Digitaria horizontalis, 0%; in the assay on Eleusine indica [2] it was 0%. Moreover, the “% herbicidal activity” value with Sorghum vulgare is recorded as 32%; with Ipomoea triloba (B solo 30 g ai/ha), 17%; with Cenchrus echinatus, 20%; in the assay with Euphorbia heterophylla, 16%; with Amaranthus hybridus, 22%.
